What was measured:
Type in all cases: cell-based
[1] = biological target: T1, LPA1 (Homo sapiens, UniProt Q92633); assay: LPA1 Migration Assay (Oris); design: host or cells: primary fibroblasts (lung, dermal), HFL-1, 3T3 and CHO cells expressing LPA1R; details: read-out: Cell Migration EC50
In short: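 Oris exclusion-zone migration of LPA1R-expressing cells (primary lung/dermal fibroblasts, HFL-1, 3T3, CHO), Cell Tracker Green-loaded and serum-starved 12-24 h, toward LPA or serum. Fixed cells in the detection zone were counted by high-content imaging, and cell number vs. concentration was fitted to a 4-parameter logistic.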

[2] = biological target: T1, LPA1; assay: Ca Flux LPA1 assay; design: the full-length cDNA for human LPA1 is obtained by PCR of the reverse transcription reaction; expressed in transfected cells
[3] = biological target: T2, LPA/S1P GPCR of interest (Homo sapiens, UniProt Q92633); assay: Beta-Arrestin based assay (PathHunter)
T2 construct: host or cells: CHO
In short: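 EA Parental CHO cells (DiscoverX) were transfected with FuGENE (Roche) using CMV promoter-driven DNA constructs encoding the LPA/S1P GPCR of interest fused to a ProLink tag. Beta-arrestin recruitment in agonist mode was assessed 24-48 hrs later with PathHunter kits. Tests ran in quadruplicate in white 384 well plates, and end point luminescence was fit to a 4 parameter logistic function.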

T1 sequence (Q92633 whole entry): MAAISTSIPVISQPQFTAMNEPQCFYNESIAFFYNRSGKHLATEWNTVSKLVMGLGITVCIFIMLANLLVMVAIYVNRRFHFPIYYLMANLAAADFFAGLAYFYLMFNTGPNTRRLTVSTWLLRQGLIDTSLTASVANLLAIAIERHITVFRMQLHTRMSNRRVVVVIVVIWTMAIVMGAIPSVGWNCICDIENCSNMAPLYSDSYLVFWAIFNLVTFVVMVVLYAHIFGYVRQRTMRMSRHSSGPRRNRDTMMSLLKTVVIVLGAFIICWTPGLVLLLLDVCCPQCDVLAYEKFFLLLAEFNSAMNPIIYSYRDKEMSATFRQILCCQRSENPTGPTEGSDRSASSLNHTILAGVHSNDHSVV
T2 sequence (Q92633 whole entry): as above

Structure (SMILES)	EC50 [1]	IC50 [2]	EC50 [3]
CCC(C)OC(=O)Nc1c(C)noc1-c1ccc(-c2ccc(Oc3ccccc3C(=O)O)cc2)cc1 (single isomer, unassigned) [IT494]	50 to 500 nM	< 50 nM	< 50 nM
C[C@@H](OC(=O)Nc1c(-c2ccc(-c3ccc(C4(C(=O)O)CC4)c4c3CCC4)cc2)cnn1C)c1ccccc1 [IT112]	50 to 500 nM	< 50 nM	< 50 nM
Cc1noc(-c2ccc(-c3ccc(C4(C(=O)O)CCC4)cc3)cc2)c1NC(=O)O[C@H](C)c1ccccc1 [IT235]	< 50 nM	50 to 500 nM	< 50 nM
Cc1noc(-c2cc(F)c(-c3ccc(Oc4ccccc4C(=O)O)cc3)cc2F)c1NC(=O)O[C@H](C)c1ccccc1 [IT315]	< 50 nM	< 50 nM	< 50 nM
Cc1noc(-c2ccc(-c3nc4sc(C5(C(=O)O)CC5)cc4s3)cc2)c1NC(=O)O[C@H](C)c1ccccc1 [IT111]	50 to 500 nM	50 to 500 nM	< 50 nM
Cc1noc(-c2ccc(-c3ccc(Oc4ccccc4C(=O)O)cc3)cc2)c1NC(=O)O[C@H](C)c1ccccc1 [IT155]	< 50 nM	50 to 500 nM	< 50 nM
C[C@@H](OC(=O)Nc1c(-c2ccc(-c3ccc(Oc4ccccc4C(=O)O)c(F)c3)cc2)nnn1C)c1ccccc1 [IT447]	< 50 nM	< 50 nM	< 50 nM
Cc1noc(-c2ccc(-c3ccc(OC4(C(=O)O)CCC4)cc3)cc2)c1NC(=O)O[C@H](C)c1ccccc1 [IT196]	50 to 500 nM	< 50 nM	< 50 nM
Cc1noc(-c2ccc(-c3cc(F)c(Oc4ccccc4C(=O)O)c(F)c3)cc2)c1NC(=O)O[C@H](C)c1ccccc1 [IT316]	< 50 nM	50 to 500 nM	< 50 nM
Cc1noc(-c2ccc(-c3ccc(Oc4ncccc4C(=O)O)cc3)cc2)c1NC(=O)O[C@H](C)c1ccccc1 [IT199]	< 50 nM	< 50 nM	< 50 nM
Cc1noc(-c2ccc(-c3cc(F)c(Oc4ccccc4C(=O)O)c(F)c3)cc2)c1NC(=O)O[C@H](C)c1ccccc1Cl [IT449]	< 50 nM	> 500 nM	< 50 nM
C[C@@H](OC(=O)Nc1c(-c2ccc(-c3cc(F)c(Oc4ncccc4C(=O)O)c(F)c3)cc2)cnn1C)c1ccccc1 [IT308]	< 50 nM	50 to 500 nM	< 50 nM
C[C@@H](OC(=O)Nc1c(-c2cc3sc(-c4ccc(C5(C(=O)O)CC5)cc4F)cc3s2)cnn1C)c1ccccc1 [IT245]	50 to 500 nM	50 to 500 nM	< 50 nM
C[C@@H](OC(=O)Nc1c(-c2ccc(-c3cc(F)c(Oc4cccnc4C(=O)O)c(F)c3)cc2)nnn1C)c1ccccc1 [IT452]	< 50 nM	< 50 nM	< 50 nM
C[C@@H](OC(=O)Nc1c(-c2ccc(-c3cc(F)c(Oc4ncccc4C(=O)O)c(F)c3)cc2)cnn1C)c1ccccc1Cl [IT450]	< 50 nM	50 to 500 nM	< 50 nM
Cc1noc(-c2ccc(-c3ccc(OC4(C(=O)O)CC4)cc3)cc2)c1NC(=O)O[C@H](C)c1ccccc1 [IT197]	< 50 nM	< 50 nM	< 50 nM
C[C@@H](OC(=O)Nc1c(-c2cc3sc(-c4cc(F)c(C5(C(=O)O)CC5)c(F)c4)cc3s2)nnn1C)c1ccccc1 [IT262]	50 to 500 nM	50 to 500 nM	< 50 nM
Cc1noc(-c2ccc(-c3ccc(Oc4c(C(=O)O)n[nH]c4C)cc3)cc2)c1NC(=O)O[C@H](C)c1ccccc1 [IT485]	< 50 nM	50 to 500 nM	< 50 nM
C[C@@H](OC(=O)Nc1c(-c2ccc(-c3cc(F)c(Oc4cccnc4C(=O)O)c(F)c3)cc2)cnn1C)c1ccccc1 [IT436]	50 to 500 nM	< 50 nM	< 50 nM
COC(=O)C1(c2cc3sc(C#Cc4cnn(C)c4NC(=O)O[C@H](C)c4ccccc4)cc3s2)CC1 [IT479]	> 500 nM	50 to 500 nM	< 50 nM

Reference: patent publication US20140213538A1, “LYSOPHOSPHATIDIC ACID RECEPTOR ANTAGONISTS” (InterMune, Inc., priority 2013, published 2014)
